From patent US8658697B2 (priority 2004, dated 2014)

Tests used:
[1] = system: Tacaribe virus (TRVL 11573); test: microbe, parasite or virus in culture; type: cell-based; conditions: Mammarenavirus tacaribeense, Vero, read-out: Tacaribe EC50
Candide I = test: microbe, parasite or virus in culture; type: cell-based, Junin virus (vaccine strain); conditions: Mammarenavirus juninense, read-out: Candide I
[2] = system: Machupo pseudotyped virus; test: microbe, parasite or virus in culture; type: cell-based; conditions: Mammarenavirus machupoense, read-out: EC50 vs. pseudotyped virus (μM) Machupo
[3] = system: Tacaribe pseudotyped virus; test: microbe, parasite or virus in culture; type: cell-based; conditions: Mammarenavirus tacaribeense, read-out: EC50 vs. pseudotyped virus (μM) Tacaribe
Tacaribe virus = test: microbe, parasite or virus in culture; type: cell-based; conditions: Mammarenavirus tacaribeense, Vero, 168 h, read-out: Tacaribe EC50
[4] = system: Pichinde pseudotyped virus; test: microbe, parasite or virus in culture; type: cell-based; conditions: read-out: EC50 vs. pseudotyped virus (μM) Pichinde
[5] = system: Guanarito pseudotyped virus; test: microbe, parasite or virus in culture; type: cell-based; conditions: Mammarenavirus guanaritoense, read-out: EC50 vs. pseudotyped virus (μM) Guanarito
Candid-1 vaccine virus = test: microbe, parasite or virus in culture; type: cell-based, Junin virus (vaccine strain); conditions: Mammarenavirus juninense, Vero, 168 h, read-out: Candid 1 EC50
VSV pseudotyped virus = test: microbe, parasite or virus in culture; type: cell-based; conditions: Vesicular stomatitis virus, read-out: EC50 vs. pseudotyped virus (μM) VSV
[6] = in vivo; cited from earlier work

SMILES	EC50 [1]	EC50 (Candide I)	EC50 [2]	EC50 [3]	EC50 (Tacaribe virus)	EC50 [4]	EC50 [5]	EC50 (Candid-1 vaccine virus)	EC50 (VSV pseudotyped virus)	adverse effects [6]
Cc1nn(C)c(Cl)c1S(=O)(=O)NNC(=O)NC(C)(C(F)(F)F)C(F)(F)F [Example 21, N-2-(1,1,1,3,3,3-Hexafluoro-2-methylpropyl)-2-[2-(5-chloro-1,3-dimethyl-1H-pyrazolyl)sulfonyl]hydrazine-1-carboxamide]	500 to 1000 nM	1000 to 5000 nM	–	–	–	–	–	–	–	–
CC(=O)c1ccc(S(=O)(=O)NNC(=O)NC(C)(C(F)(F)F)C(F)(F)F)cc1 [Example 39, N-2-(1,1,1,3,3,3-Hexafluoro-2-methylpropyl)-2-[(4-acetylphenyl)sulfonyl]hydrazine-1-carboxamide]	1000 to 5000 nM	> 5000 nM	–	–	–	–	–	–	–	–
CC(NC(=O)N1CCCC1)(C(F)(F)F)C(F)(F)F [Example 91, 1-Pyrrolidinyl-1-(2,2,2-trifluoro-1-methyl-1-trifluoromethylethyl)-carboxamide]	> 5000 nM	–	–	–	–	–	–	–	–	–
CC(NC(=O)Nc1ccc(F)cc1)(C(F)(F)F)C(F)(F)F [Example 92, 1-(4-Fluorophenyl)-3-(2,2,2-trifluoro-1-methyl-1-trifluoromethylethyl)-urea]	> 5000 nM	–	–	–	–	–	–	–	–	–
CC(NC(=O)Nc1ccc(Br)cc1Br)(C(F)(F)F)C(F)(F)F [Example 93, 1-(2,4-Dibromophenyl)-3-(2,2,2-trifluoro-1-methyl-1-trifluoromethylethyl)-urea]	> 5000 nM	–	–	–	–	–	–	–	–	–
CC(NC(=O)N1CCCCCC1)(C(F)(F)F)C(F)(F)F [Example 94, Azepane-1-carboxylic acid (2,2,2-trifluoro-1-methyl-1-trifluoromethylethyl)-amide]	> 5000 nM	–	–	–	–	–	–	–	–	–
CC(NC(=O)Nc1ccc(Br)cc1OC(F)(F)F)(C(F)(F)F)C(F)(F)F [Example 95, 1-(4-Bromo-2-trifluoromethoxyphenyl)-3-(2,2,2-trifluoro-1-methyl-1-trifluoromethylethyl)-urea]	> 5000 nM	–	–	–	–	–	–	–	–	–
CC(NC(=O)Nc1ccccc1OC(F)(F)F)(C(F)(F)F)C(F)(F)F [Example 96, 1-(2-Trifluoromethoxyphenyl)-3-(2,2,2-trifluoro-1-methyl-1-trifluoromethylethyl)-urea]	> 5000 nM	–	–	–	–	–	–	–	–	–
COc1ccccc1NC(=O)NC(C)(C(F)(F)F)C(F)(F)F [Example 98, 1-(2-Methoxyphenyl)-3-(2,2,2-trifluoro-1-methyl-1-trifluoromethylethyl)-urea]	> 5000 nM	–	–	–	–	–	–	–	–	–
CCC(NC(=O)NNC(=O)c1cc(OCC(F)(F)F)ccc1OCC(F)(F)F)(C(F)(F)F)C(F)(F)F [Example 99, 2-[2,5-bis(2,2,2-trifluoroethoxy)benzoyl]-N-[1,1-bis(trifluoromethyl)propyl]hydrazinecarboxamide]	–	–	0.5 to 1 µM	< 0.5 µM	< 500 nM	1 to 5 µM	1 to 5 µM	> 5000 nM	> 5 µM	–
CCC(NC(=O)NNC(=O)c1ccc(C(C)(C)C)cc1)(C(F)(F)F)C(F)(F)F [Example 100, N-[1,1-bis(trifluoromethyl)propyl]-2-(4-tert-butylbenzoyl)hydrazinecarboxamide]	–	–	< 0.5 µM	< 0.5 µM	< 500 nM	1 to 5 µM	< 0.5 µM	1000 to 5000 nM	> 5 µM	–
CCC(NC(=O)NNC(=O)c1ccc(-c2ccccc2)cc1)(C(F)(F)F)C(F)(F)F [Example 101, 2-(1,1′-biphenyl-4-ylcarbonyl)-N-[1,1-bis(trifluoromethyl)propyl] hydrazinecarboxamide]	–	–	< 0.5 µM	< 0.5 µM	< 500 nM	0.5 to 1 µM	< 0.5 µM	1000 to 5000 nM	> 5 µM	–
CCC(NC(=O)NNC(=O)c1cccc2ccccc12)(C(F)(F)F)C(F)(F)F [Example 102, N-[1,1-bis(trifluoromethyl)propyl]-2-(1-naphthoyl)hydrazinecarboxamide]	–	–	< 0.5 µM	< 0.5 µM	< 500 nM	1 to 5 µM	1 to 5 µM	> 5000 nM	> 5 µM	–
CCC(NC(=O)NNC(=O)c1ccccc1-c1ccccc1)(C(F)(F)F)C(F)(F)F [Example 103]	–	–	< 0.5 µM	< 0.5 µM	500 to 1000 nM	1 to 5 µM	< 0.5 µM	1000 to 5000 nM	> 5 µM	–
CCC(NC(=O)NNC(=O)c1ccc(C)cc1)(C(F)(F)F)C(F)(F)F [Example 104, N-[1,1-bis(trifluoromethyl)propyl]-2-(4-methylbenzoyl)hydrazinecarboxamide]	–	–	< 0.5 µM	< 0.5 µM	500 to 1000 nM	1 to 5 µM	< 0.5 µM	> 5000 nM	> 5 µM	–
CCC(NC(=O)NNC(=O)c1ccc2ccccc2c1)(C(F)(F)F)C(F)(F)F [Example 105, N-[1,1-bis(trifluoromethyl)propyl]-2-(2-naphthoyl)hydrazinecarboxamide]	–	–	< 0.5 µM	< 0.5 µM	< 500 nM	1 to 5 µM	< 0.5 µM	1000 to 5000 nM	> 5 µM	–
CCC(NC(=O)NNC(=O)c1cc(OC)ccc1OC)(C(F)(F)F)C(F)(F)F [Example 106, N-[1,1-bis(trifluoromethyl)propyl]-2-(2,5-dimethoxybenzoyl)hydrazinecarboxamide]	–	–	< 0.5 µM	< 0.5 µM	< 500 nM	> 5 µM	< 0.5 µM	1000 to 5000 nM	> 5 µM	–
CCC(NC(=O)NNC(=O)c1ccc(Cl)c(Cl)c1)(C(F)(F)F)C(F)(F)F [Example 107, N-[1,1-bis(trifluoromethyl)propyl]-2-(3,4-dichlorobenzoyl)hydrazinecarboxamide]	–	–	< 0.5 µM	< 0.5 µM	500 to 1000 nM	1 to 5 µM	< 0.5 µM	1000 to 5000 nM	> 5 µM	–
CCC(NC(=O)NNC(=O)c1ccc(Br)cc1)(C(F)(F)F)C(F)(F)F [Example 108, N-[1,1-bis(trifluoromethyl)propyl]-2-(4-bromobenzoyl)hydrazinecarboxamide]	–	–	< 0.5 µM	< 0.5 µM	500 to 1000 nM	1 to 5 µM	< 0.5 µM	1000 to 5000 nM	> 5 µM	–
CCC(NC(=O)NNC(=O)c1ccc(C(C)C)cc1)(C(F)(F)F)C(F)(F)F [Example 109, N-[1,1-bis(trifluoromethyl)propyl]-2-(4-isopropylbenzoyl)hydrazinecarboxamide]	–	–	< 0.5 µM	< 0.5 µM	< 500 nM	> 5 µM	< 0.5 µM	1000 to 5000 nM	> 5 µM	–
CCC(NC(=O)NNC(=O)c1cc(C)cc(C)c1)(C(F)(F)F)C(F)(F)F [Example 110, N-[1,1-bis(trifluoromethyl)propyl]-2-(3,5-dimethylbenzoyl)hydrazinecarboxamide]	–	–	< 0.5 µM	< 0.5 µM	< 500 nM	1 to 5 µM	0.5 to 1 µM	1000 to 5000 nM	> 5 µM	–
CCC(NC(=O)NNC(=O)c1c(C)cc(C)cc1C)(C(F)(F)F)C(F)(F)F [Example 111, N-[1,1-bis(trifluoromethyl)propyl]-2-(mesitylcarbonyl)hydrazinecarboxamide]	–	–	< 0.5 µM	< 0.5 µM	1000 to 5000 nM	1 to 5 µM	0.5 to 1 µM	–	> 5 µM	–
CCC(NC(=O)NNC(=O)c1cc(Cl)ccc1OC)(C(F)(F)F)C(F)(F)F [Example 112, N-[1,1-bis(trifluoromethyl)propyl]-2-(5-chloro-2-methoxybenzoyl)hydrazinecarboxamide]	–	–	< 0.5 µM	< 0.5 µM	< 500 nM	1 to 5 µM	< 0.5 µM	> 5000 nM	> 5 µM	–
NC(=O)c1ncn([C@@H]2O[C@H](CO)[C@@H](O)[C@H]2O)n1 [ribavirin, Ribavirin]	–	–	–	–	–	–	–	–	–	dose-related, reversible hemolytic anemia
